In patent publication US11912693B2, “Compounds for modulating S1P1 activity and methods of using the same” (TREVENA, INC., priority 2017, dated 2024):

How the values were obtained:
[1] = biological target: T1, human sphingosine-1-phosphate receptor 1 (S1P1) (Homo sapiens (Human), UniProt P21453); test: β-Arrestin2 recruitment assay (PathHunter), S1P1 CHO-K1 cells; assay type: cell-based; conditions: for hS1P1 B-arrestin2 pEC50: β-arrestin2 recruitment, S1P1 CHO-K1 cells; for Emax: CHO-K1, efficacy (SPAN) normalized to fingolimod, read-out: hS1P1 B-arrestin2 SPAN
Procedure, shortened: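 Enzyme-fragment complementation read-out: agonist-driven β-arrestin2 binding to ProLink-tagged human S1P1 in stable CHO-K1 cells restores β-galactosidase, measured 1 h at room temperature after a 60 min 37° C. compound incubation. Potency as pEC50, efficacy relative to fingolimod (SPAN).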
Target sequence in this assay (P21453 whole entry, looked up, the tested form may be a part): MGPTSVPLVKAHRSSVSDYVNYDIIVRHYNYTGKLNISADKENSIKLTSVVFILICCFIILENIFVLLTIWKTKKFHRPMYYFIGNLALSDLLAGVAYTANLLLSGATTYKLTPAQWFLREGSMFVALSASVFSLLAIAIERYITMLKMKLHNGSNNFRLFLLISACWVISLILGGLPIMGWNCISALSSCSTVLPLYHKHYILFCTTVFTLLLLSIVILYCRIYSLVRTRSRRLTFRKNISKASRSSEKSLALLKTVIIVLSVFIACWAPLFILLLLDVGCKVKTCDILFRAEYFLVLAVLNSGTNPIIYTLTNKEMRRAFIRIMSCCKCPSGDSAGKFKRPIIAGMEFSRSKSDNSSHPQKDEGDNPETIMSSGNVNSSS
Target sequence in this assay (P32121 whole entry partner, looked up, the tested form may be a part): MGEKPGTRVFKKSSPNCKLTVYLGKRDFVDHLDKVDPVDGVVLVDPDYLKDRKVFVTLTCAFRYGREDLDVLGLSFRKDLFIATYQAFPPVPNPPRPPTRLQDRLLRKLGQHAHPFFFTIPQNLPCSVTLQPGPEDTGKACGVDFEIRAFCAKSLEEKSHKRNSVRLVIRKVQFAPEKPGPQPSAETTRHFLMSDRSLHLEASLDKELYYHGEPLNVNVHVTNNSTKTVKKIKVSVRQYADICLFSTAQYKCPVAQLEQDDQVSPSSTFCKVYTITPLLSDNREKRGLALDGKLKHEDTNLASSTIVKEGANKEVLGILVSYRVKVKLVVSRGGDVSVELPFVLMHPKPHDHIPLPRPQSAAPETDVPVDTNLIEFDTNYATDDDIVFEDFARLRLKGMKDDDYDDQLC

[2] = biological target: T1, human sphingosine-1-phosphate receptor 1 (S1P1); test: Inhibition of cAMP production (HTRF cAMP HiRange), S1P1 CHO-K1 cells; assay type: cell-based; conditions: for hS1P1 cAMP pEC50: inhibition of cAMP production, S1P1 CHO-K1 cells; for Emax: CHO-K1, efficacy (SPAN) normalized to fingolimod, read-out: hS1P1 cAMP SPAN
Procedure, shortened: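 CHO-K1 cells stably co-expressing human S1P1 (C-terminal Prolink tag) and EA-β-arrestin2 were grown in AssayComplete Media 6 at 37° C. and 5% CO2, plated, and incubated overnight. Agonist-driven inhibition of intracellular cAMP was read by TR-FRET with the HTRF cAMP HiRange kit on a PheraStar reader. Potency is pEC50, and efficacy (SPAN) is normalized to fingolimod.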
Target sequence in this assay (P21453 whole entry, looked up, the tested form may be a part): as the sequence (P21453 whole entry, looked up, the tested form may be a part) above

| hS1P1 B-arrestin2 pEC50 [1] | hS1P1 cAMP pEC50 [2] | Emax [1] [%] | Emax [2] [%] | SMILES |
| --- | --- | --- | --- | --- |
| <5 | <6.5 | > 75 | > 75 | CCC1(CC)CC(=O)c2cc(-c3nc(-c4ccncc4O)no3)ccc2O1 [Compound 312, 2,2-diethyl-6-(3-(3-hydroxypyridin-4-yl)-1,2,4-oxadiazol-5-yl)chroman-4-one] |
| <5 | >6.5 | > 75 | > 75 | CCC1(CC)CC(=O)c2cc(-c3nc(-c4ccncc4C(F)(F)F)no3)ccc2O1 [Compound 313, 2,2-diethyl-6-(3-(3-(trifluoromethyl)pyridin-4-yl)-1,2,4-oxadiazol-5-yl)chroman-4-one] |
| <5 | <6.5 | < 75 | < 75 | CCC1(CC)CC(=O)c2cc(-c3nc(-c4ccnc(C(F)(F)F)c4)no3)ccc2O1 [Compound 314, 2,2-diethyl-6-(3-(2-(trifluoromethyl)pyridin-4-yl)-1,2,4-oxadiazol-5-yl)chroman-4-one] |
| >5 | >6.5 | < 75 | > 75 | CCC1(CC)CC(=O)c2cc(-c3nc(-c4ccnc(C)c4)no3)ccc2O1 [Compound 315, 2,2-diethyl-6-(3-(2-methylpyridin-4-yl)-1,2,4-oxadiazol-5-yl)chroman-4-one] |
| <5 | >6.5 | < 75 | > 75 | CC(=O)Nc1ccc(-c2noc(-c3ccc(NC(C)C)c(C#N)c3)n2)cc1 [Compound 316, N-(4-(5-(3-cyano-4-(isopropylamino)phenyl)-1,2,4-oxadiazol-3-yl)phenyl)acetamide] |
| >5 | >6.5 | > 75 | > 75 | CC(C)n1ccc2cc(-c3nc(-c4ccccc4Cl)no3)ccc21 [Compound 320, 3-(2-chlorophenyl)-5-(1-isopropyl-1H-indol-5-yl)-1,2,4-oxadiazole] |
| >5 | <6.5 | < 75 | > 75 | CC(C)n1ccc2cc(-c3nc(-c4ccccc4OC(F)(F)F)no3)ccc21 [Compound 321, 5-(1-isopropyl-1H-indol-5-yl)-3-(2-(trifluoromethoxy)phenyl)-1,2,4-oxadiazole] |
| >5 | >6.5 | > 75 | > 75 | CC(C)n1ccc2cc(-c3nc(-c4ccccc4Br)no3)ccc21 [Compound 322, 3-(2-bromophenyl)-5-(1-isopropyl-1H-indol-5-yl)-1,2,4-oxadiazole] |
| <5 | <6.5 | > 75 | > 75 | CC(C)n1ccc2cc(-c3nc(-c4ccccc4O)no3)ccc21 [Compound 323, 2-(5-(1-isopropyl-1H-indol-5-yl)-1,2,4-oxadiazol-3-yl)phenol] |
| <5 | <6.5 | < 75 | < 75 | CC(C)Oc1ccccc1-c1noc(-c2ccc3c(ccn3C(C)C)c2)n1 [Compound 324, 3-(2-isopropoxyphenyl)-5-(1-isopropyl-1H-indol-5-yl)-1,2,4-oxadiazole] |
| <5 | <6.5 | < 75 | < 75 | COc1cccc(OC)c1-c1noc(-c2ccc3c(ccn3C(C)C)c2)n1 [Compound 325, 3-(2,6-dimethoxyphenyl)-5-(1-isopropylindol-5-yl)-1,2,4-oxadiazole] |
| >5 | <6.5 | > 75 | > 75 | CC(C)n1ccc2cc(-c3nc(-c4cccc5c4OCO5)no3)ccc21 [Compound 326, 3-(benzo[d][1,3]dioxol-4-yl)-5-(1-isopropyl-1H-indol-5-yl)-1,2,4-oxadiazole] |
| >5 | <6.5 |  |  | CC(C)n1ccc2cc(-c3nc(-c4cccc5c4OCCC5)no3)ccc21 [Compound 327, 3-chroman-8-yl-5-(1-isopropylindol-5-yl)-1,2,4-oxadiazole] |
| >5 | <6.5 |  |  | COc1cccc(F)c1-c1noc(-c2ccc3c(ccn3C(C)C)c2)n1 [Compound 328, 3-(2-fluoro-6-methoxy-phenyl)-5-(1-isopropylindol-5-yl)-1,2,4-oxadiazole] |
| >5 | >6.5 | > 75 | > 75 | Cc1ccccc1-c1noc(-c2ccc3c(cnn3C(C)C)c2)n1 [Compound 329, 5-(1-isopropyl-1H-indazol-5-yl)-3-(o-tolyl)-1,2,4-oxadiazole] |

Second part, the compound before the results:

| SMILES | hS1P1 B-arrestin2 pEC50 [1] | hS1P1 cAMP pEC50 [2] | Emax [1] [%] | Emax [2] [%] |
| --- | --- | --- | --- | --- |
| O=C1CC2(CCCC2)Oc2ccc(-c3nc(-c4cccnc4)no3)cc21 [Compound 298, 6-[3-(pyridin-3-yl)-1,2,4-oxadiazol-5-yl]-3,4-dihydrospiro[1-benzopyran-2,1′-cyclopentane]-4-one] | >5 | <6.5 |  |  |
| COc1cccc(-c2nc(-c3ccc4c(c3)nnn4C(C)C)no2)c1 [Compound 299, 3-(1-isopropylbenzotriazol-5-yl)-5-(3-methoxyphenyl)-1,2,4-oxadiazole] | <5 | <6.5 | > 75 | < 75 |
| CCC1(CC)CC(=O)c2cc(-c3nnc(-c4ccccc4OC)o3)ccc2O1 [Compound 300, 2,2-diethyl-6-(5-(2-methoxyphenyl)-1,3,4-oxadiazol-2-yl)chroman-4-one] | <5 | <6.5 |  |  |
| CCC1(CC)CC(=O)c2cc(-c3nc(-c4ccc(OC)nc4)no3)ccc2O1 [Compound 301, 2,2-diethyl-6-[3-(6-methoxy-3-pyridyl)-1,2,4-oxadiazol-5-yl]chroman-4-one] | <5 | <6.5 | < 75 | < 75 |
| N#Cc1cc(-c2nc(-c3ccc4c(c3)CCC(=O)N4)no2)ccc1NCC1CC1 [Compound 302, 2-((cyclopropylmethyl)amino)-5-(3-(2-oxo-1,2,3,4-tetrahydroquinolin-6-yl)-1,2,4-oxadiazol-5-yl)benzonitrile] | >5 | >6.5 | > 75 | > 75 |
| CCC1(CC)CC(=O)c2cc(-c3nc(-c4cnccc4OC)no3)ccc2O1 [Compound 303, 2,2-diethyl-6-(3-(4-methoxypyridin-3-yl)-1,2,4-oxadiazol-5-yl)chroman-4-one] | <5 | <6.5 | > 75 | > 75 |
| CC(C)n1nnc2cc(-c3noc(-c4ccccc4F)n3)ccc21 [Compound 307, 5-(2-fluorophenyl)-3-(1-isopropyl-1H-benzo[d][1,2,3]triazol-5-yl)-1,2,4-oxadiazole] | >5 | >6.5 | > 75 | > 75 |
| Cc1ccccc1-c1noc(-c2ccc3nnn(C(C)C)c3c2)n1 [Compound 308, 6-[3-(2-methylphenyl)-1,2,4-oxadiazol-5-yl]-1-(propan-2-yl)-1H-1,2,3-benzotriazole] | <5 | <6.5 | < 75 | < 75 |
| CCC1(CC)CC(=O)c2cc(-c3nc(-c4cccnc4)ns3)ccc2O1 [Compound 309, 2,2-diethyl-6-(3-(pyridin-3-yl)-1,2,4-thiadiazol-5-yl)chroman-4-one] | <5 | <6.5 | > 75 | > 75 |
| CCC1(CC)CC(=O)c2cc(-c3nc(-c4cncc(O)c4)no3)ccc2O1 [Compound 310, 2,2-diethyl-6-[3-(5-hydroxy-3-pyridyl)-1,2,4-oxadiazol-5-yl]chroman-4-one] | >5 | >6.5 | > 75 | > 75 |
| CCC1(CC)CC(=O)c2cc(-c3nc(-c4cncc(OC)c4)no3)ccc2O1 [Compound 311, 2,2-diethyl-6-(3-(5-methoxypyridin-3-yl)-1,2,4-oxadiazol-5-yl)chroman-4-one] | <5 | <6.5 |  |  |
